From the NIST ThermoML archive (doi:10.1016/j.jct.2008.02.001)
Numbers after ± are expanded uncertainties.

Assay: molar heat capacity at constant pressure
Details: 101.33 kPa, Crystal, PPMS-Quantum Design

[O-][Si]([O-])([O-])[O-].[Th+4] [thorium silicate]
Details | molar heat capacity at constant pressure [J/K/mol]
26.91 K | 4.308 ± 0.3
27.88 K | 4.727 ± 0.33
28.82 K | 5.152 ± 0.36
29.81 K | 5.6 ± 0.39
30 K | 5.69 ± 0.4
30.85 K | 6.085 ± 0.42
31.93 K | 6.6 ± 0.46
33.08 K | 7.146 ± 0.5
34.36 K | 7.779 ± 0.54
35.54 K | 8.309 ± 0.58
36.76 K | 8.996 ± 0.62
38.05 K | 9.736 ± 0.68
39.38 K | 10.24 ± 0.72
40 K | 10.68 ± 0.75
40.71 K | 10.97 ± 0.76
42.03 K | 11.71 ± 0.81
43.53 K | 12.5 ± 0.87
45.03 K | 13.28 ± 0.92
46.58 K | 14.12 ± 0.98
48.19 K | 15 ± 1.1
49.84 K | 15.88 ± 1.1
50 K | 16.04 ± 1.1
51.54 K | 16.84 ± 1.2
53.32 K | 17.83 ± 1.2
55.17 K | 18.86 ± 1.3
57.08 K | 19.9 ± 1.4
59.06 K | 20.99 ± 1.5
61.1 K | 22.12 ± 1.5
63.21 K | 23.21 ± 1.6
65.39 K | 24.39 ± 1.7
67.65 K | 25.63 ± 1.8
69.99 K | 26.91 ± 1.9
72.42 K | 28.19 ± 2
74.93 K | 29.51 ± 2
77.52 K | 30.84 ± 2.1
80.21 K | 32.24 ± 2.2
82.99 K | 33.67 ± 2.3
85.77 K | 35.08 ± 2.4
88.74 K | 36.63 ± 2.5
91.81 K | 38.21 ± 2.7
94.98 K | 39.83 ± 2.8
98.28 K | 41.48 ± 2.9
100 K | 42.28 ± 2.9
101.68 K | 43.16 ± 3
105.2 K | 44.86 ± 3.1
108.84 K | 46.57 ± 3.2
112.61 K | 48.32 ± 3.4
116.51 K | 50.09 ± 3.5
120.55 K | 51.87 ± 3.6
124.73 K | 53.61 ± 3.7
129.04 K | 55.37 ± 3.9
133.51 K | 57.22 ± 4
138.13 K | 59.1 ± 4.1
142.91 K | 60.93 ± 4.2
147.86 K | 62.82 ± 4.4
150 K | 63.64 ± 4.4
152.97 K | 64.6 ± 4.5
158.25 K | 66.54 ± 4.6
163.72 K | 68.4 ± 4.8
169.39 K | 70.23 ± 4.9
175.25 K | 72.2 ± 5
181.32 K | 74.15 ± 5.2
187.59 K | 75.84 ± 5.3
194.08 K | 77.96 ± 5.4
200 K | 79.46 ± 5.5
200.79 K | 79.76 ± 5.5
207.73 K | 81.56 ± 5.7
214.93 K | 83.34 ± 5.8
222.36 K | 85.17 ± 5.9
230.05 K | 86.81 ± 6
238.01 K | 88.63 ± 6.2
246.25 K | 90.44 ± 6.3
250 K | 91.07 ± 6.3
254.74 K | 92.01 ± 6.4
263.54 K | 93.59 ± 6.5
272.64 K | 95.02 ± 6.6
282.08 K | 96.5 ± 6.7
291.84 K | 98.01 ± 6.8
298.15 K | 98.68 ± 6.9
300 K | 98.88 ± 6.9
302.26 K | 99.17 ± 6.9
